Laboratory results reported in patent publication US4094964A, “Clonidine assay” (Hoffmann-La Roche Inc., priority 1977, dated 1978).

System: antibody in the antiserum of rabbit immunized by the clonidine bovine serum albumin immunogen
Test: Radioimmunoassay specificity: competition with clonidine-14C for binding to the antiserum
Settings: 100 ng to 500 pg of competitor, antiserum 1:50, about 18 hours at 4° C., pH 7.4
Procedure: The antiserum of Example 3 as used for the radioimmunoassay was diluted with normal rabbit serum which was diluted with phosphate-buffered saline, pH 7.4, at 1:10-dilution. To determine the antibody titre of antiserum, 0.1 ml of various dilutions of the antiserum was incubated in an assay tube (10 × 75 mm) with 2 ng of clonidine ^14 C approximately 3,000 cpm at 4° C. for about 18 hours. The volume was adjusted to 0.5 ml with phosphate-buffered saline, pH 7.4, which is the optimal pH for the assay. The antibody bound clonidine was separated from free clonidine by the addition of saturated ammonium sulfate which was adjusted to pH 7.4 with ammonium hydroxide as described by Farr, J. Infect. Dis 103, 239 (1958). After 2 washings with 50% saturated ammonium sulfate, the precipitate was dissolved in 0.5 ml of water. The content of the tube was transferred to counting vial and the tube was then washed 4 times with 3 ml of Riafluor. The 12 ml washings were all collected in the vial. The radioactivity was then counted with a Beckman liquid scintillation counter. The dilution of the antiserum chosen for further studies was 1:50.
Appropriate volume of phosphate-buffered saline, pH 7.4 was added to all tubes containing 0.1 ml of the antiserum to make a final incubation volume of 0.5 ml. To the tubes were added 100 ul of clonidine-^14 C and various quantities ranging from 100 ng to 500 pg of clonidine, 2-(2,6-dichloro-4-hydroxyanilino)-2-imidazoline (4-hydroxyclonidine), 2-(2,6-dichloro-4-sulfonamidoanilino)-2-imidazoline (4-sulfonamidoclonidine),2-(2-chloro-3-methylanilino)-2-imidazoline, 2-(2-chloro-4-methylanilino)-2-imidazoline, 2-(2-chloro-6-methylanilino)-2-imidazoline, 2-anilino-2-imidazoline, 2-(2,6-dichloro-anilino)-2-methyl-2-imidazoline (2-methylclonidine), 2-(2,6-dichloroanilino)-1-methyl-2-imidazoline (1-methylclonidine), 1-acetamido-2-(2,6-dichloroanilino)-2-imidazoline (1-acetamidoclonidine), 2-(2,6-dichloroanilino)-2-pyrroline, 2-(2,6-dichloroanilino)-2-oxazoline, 2-(2,6-dichloroanilino)-2-benzimidazole, 2-(2,6-dichloroanilino)-1,3-dimethylquanidine, 2-(2,6-dichloroanilino)-1-methylguanidine, 2-(2,6-dichloroanilino)quanidine, aniline or 2-(2,6-dichlorobenzyl)-2-imidazoline. The tubes were then incubated for about 18 hours at 4° C. followed by precipitation with ammonium sulfate.
The specificity of the antibody in the antiserum of rabbit immunized by the clonidine bovine serum albumin immunogen was determined by incubating the antiserum with 2-(2,6-dichloro-4-hydroxyanilino)-2-imidazoline (4-hydroxyclonidine), 2-(2,6-dichloro-4-sulfonamidoanilino)-2-imidazoline (4-sulfonamidoclonidine), 2-(2-chloro-3-methylanilino)-2-imidazoline, 2-(2-chloro-4-methylanilino)-2-imidazoline, 2-(2-chloro-6-methylanilino)-2-imidazoline, 2-anilino-2-imidazoline, 2-(2,6-dichloroanilino)-2-methyl-2-imidazoline (2-methylclonidine), 2-(2,6-dichloroanilino)-1-methyl-2-imidazoline (1-methylclonidine), 1-acetamido-2-(2,6-dichloroanilino)-2-imidazoline (1-acetamidoclonidine), 2-(2,6-dichloroanilino)-2-pyrroline, 2-(2,6-dichloroanilino)-2-oxazoline, 2-(2,6-dichloroanilino)-2-benzimidazole, 2-(2,6-dichloroanilino)-1,3-dimethylguanidine, 2-(2,6-dichloroanilino)-1-methylguanidine, 2-(2,6-dichloroanilino)guanidine, aniline or 2-(2,6-dichlorobenzyl)-2-imidazoline in the presence of labelled clonidine.

Molecule | recognition by the antibody in the presence of labelled clonidine
2-(2,6-dichloroanilino)-1,3-dimethylguanidine | failed to recognize
2-(2,6-dichloroanilino)-2-methyl-2-imidazoline | failed to recognize
2-(2,6-dichloroanilino)guanidine [2-(2,6-dichloro-anilino)guanidine] | failed to recognize
CC(=O)NN1CCN=C1Nc1c(Cl)cccc1Cl [1-acetamido-2-(2,6-dichloroanilino)-2-imidazoline] | recognized
Oc1cc(Cl)c(NC2=NCCN2)c(Cl)c1 [2-(2,6-dichloro-4-hydroxyanilino)-2-imidazoline] | recognized
NS(=O)(=O)c1cc(Cl)c(NC2=NCCN2)c(Cl)c1 [2-(2,6-dichloro-4-sulfonamidoanilino)-2-imidazoline] | recognized
Clc1cccc(Cl)c1NC1=NCCO1 [2-(2,6-dichloro-anilino)-2-oxazoline, 2-(2,6-dichloroanilino)-2-oxazoline] | failed to recognize
CN1CCN=C1Nc1c(Cl)cccc1Cl [2-(2,6-dichloroanilino)-1-methyl-2-imidazoline] | failed to recognize
Clc1cccc(Cl)c1CC1=NCCN1 [2-(2,6-dichlorobenzyl)-2-imidazoline] | failed to recognize
Cc1cccc(NC2=NCCN2)c1Cl [2-(2-chloro-3-methylanilino)-2-imidazoline] | recognized
Cc1ccc(NC2=NCCN2)c(Cl)c1 [2-(2-chloro-4-methylanilino)-2-imidazoline] | recognized
Cc1cccc(Cl)c1NC1=NCCN1 [2-(2-chloro-6-methylanilino)-2-imidazoline] | recognized
c1ccc(NC2=NCCN2)cc1 [2-anilino-2-imidazoline] | failed to recognize
Nc1ccccc1 [aniline] | failed to recognize

Same assay, conditions: antiserum 1:50, about 18 hours at 4° C., pH 7.4

Molecule | concentration required relative to that of clonidine (cross-reactivity)
2-(2,6-dichloroanilino)-1-methylguanidine | about 40 times that of clonidine
Clc1cccc(Cl)c1NC1=CCCN1 [2-(2,6-dichloroanilino)-2-pyrroline] | about 40 times that of clonidine

Same assay, conditions: read-out: concentration producing a 50% inhibition of binding of clonidine-14C to the antibody; antiserum 1:50, about 18 hours at 4° C., pH 7.4, ammonium sulfate precipitation

Molecule | IC50 [nM]
Clc1cccc(Cl)c1N=C1NCCN1 [Clonidine] | 25
